pIC50: −log10 of the molar value. Where only a bound is given, the exact number is not on record here.

Adenosine kinase, sequence (Q64640 whole entry): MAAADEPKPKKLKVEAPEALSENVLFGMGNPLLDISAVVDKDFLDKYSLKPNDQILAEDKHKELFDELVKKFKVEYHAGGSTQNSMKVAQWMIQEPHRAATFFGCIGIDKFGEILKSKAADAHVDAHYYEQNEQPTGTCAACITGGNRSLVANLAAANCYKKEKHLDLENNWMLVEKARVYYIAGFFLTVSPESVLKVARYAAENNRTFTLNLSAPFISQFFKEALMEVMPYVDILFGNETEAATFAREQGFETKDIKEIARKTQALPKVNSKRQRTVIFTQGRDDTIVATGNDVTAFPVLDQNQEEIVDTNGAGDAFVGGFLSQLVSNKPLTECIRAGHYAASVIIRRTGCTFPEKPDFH

The assay concerns the target Adenosine kinase (Rattus norvegicus, UniProt Q64640). Nature of the assay: In vitro inhibition of Adenosine kinase of rat brain cytosol.
The pIC50 is the negative decadic logarithm of the IC50, by convention in mol/L. A high value points to a low IC50. In the case of `COC(=O)c1c(Cl)ncnc1N[C@@H]1O[C@H](CO)[C@@H](O)[C@H]1O`, the negative logarithm of the IC50 (pIC50) was less than 5.00.

As for `Nc1ncnc(N[C@@H]2O[C@H](CBr)[C@@H](O)[C@H]2O)c1[N+](=O)[O-]`, the pIC50 was less than 5.00.

For the molecule `Nc1ncnc(N[C@@H]2O[C@H](CO)[C@@H](O)[C@H]2O)c1[S+]([O-])c1ccccc1` (some centres undefined), the pIC50 is less than 5.00.

The molecule `C[C@H]1O[C@@H](Nc2ncnc(N)c2[N+](=O)[O-])[C@H](O)[C@@H]1O` had a pIC50 of 5.40.

As for `Nc1ncnc(N[C@@H]2O[C@H](CO)[C@@H](O)[C@H]2O)c1S(=O)(=O)c1ccccc1`, the negative-log IC50 (pIC50) is less than 5.00.

`COC(=O)c1c(N)ncnc1N[C@@H]1O[C@H](C)[C@@H](O)[C@H]1O` gave a pIC50 of 5.21.

As to `COC(=O)c1c(N)ncnc1N[C@@H]1O[C@H](CN)[C@@H](O)[C@H]1O`, the pIC50 was 8.70.

Molecule `COC(=O)c1c(N)ncnc1N[C@@H]1O[C@H](CO)[C@@H](O)[C@H]1O` showed a negative logarithm of the IC50 (pIC50) of 5.00.

For `COC(=O)c1cncnc1N[C@@H]1O[C@H](CN)[C@@H](O)[C@H]1O`, the negative-log IC50 (pIC50) is 8.40.

Regarding `Nc1ncnc(N[C@@H]2O[C@H](CO)[C@@H](O)[C@H]2O)c1C(=O)NCCO`, the pIC50 is less than 5.00.

The molecule `Nc1ncnc(N[C@@H]2O[C@H](CO)[C@@H](O)[C@H]2O)c1C1=NCCO1` gave a pIC50 of 5.40.

As to `NC[C@H]1O[C@@H](Nc2ncnc(N)c2[N+](=O)[O-])[C@H](O)[C@@H]1O`, the pIC50 is 7.46.

On to `COC(=O)c1cncnc1N[C@@H]1O[C@H](CO)[C@@H](O)[C@H]1O`, for which the pIC50 was 6.22.

Take `O=[N+]([O-])c1c(Nc2ccccc2)ncnc1N[C@@H]1O[C@H](CO)[C@@H](O)[C@H]1O`: the pIC50 is less than 5.00.

Values taken from ChEMBL document CHEMBL1133950, “Synthesis and biological evaluation of clitocine analogues as adenosine kinase inhibitors” (Bioorg Med Chem Lett, 2001).
